Assay results: publication PMC10184157 (ACS Medicinal Chemistry Letters, 2023)

System: athymic nude mice doubly xenografted with PC3 cells and 22Rv1 cells
Experiment: Quantitative PET imaging in doubly xenografted mice
Format: in vivo
Details: PET VOI analysis, 50-70 min p.i., retro-orbital injection

`O=C([O-])CN(CCN(CC(=O)[O-])Cc1cc(CCC(=O)NCCCCCC(=O)NCCCC[C@H](NC(=O)N[C@@H](CCC(=O)O)C(=O)O)C(=O)O)ccc1[O-])Cc1cc(CCC(=O)O)ccc1[O-].[68Ga+3].[OH3+]` [[^68Ga]Ga-PSMA11, HO-Glu-CO-Lys(HBED-CC-Ahx)-OH] was tested, and the “uptake in 22Rv1 tumor” value was 3.22 % ID/g.
